Patent US20200390729A1, “OPHTHALMIC TOPICAL COMPOSITION COMPRISING DOBESILIC ACID FOR TREATING DISEASES OF THE POSTERIOR SEGMENT OF THE EYE” (LABORATORIOS SALVAT, S.A., priority 2017, published 2020)
Read-outs that look alike come from different tables or passages of the source.

Columns and labels:
[1] = Ocular distribution of CDO in rats, single dose topical ocular vs. oral; assay type: in vivo, Sprague Dawley (SD) rat; design: key to CDO concentrations Retina / CDO concentrations Optic nerve: —: non-detectable
Procedure: In Sprague Dawley (SD) rat, weighing approximately 200 g, CDO was administered by topical ocular instillation (10 μl/eye) at 10 mg/ml (composition 2 of Example 1), at 100 mg/ml (composition 5 of Example 1) or by oral gavage at 50 mg/kg, at 200 mg/kg or at 750 mg/kg in aqueous solution (from compositions 1, 3 and 4, respectively, of Example 1). At 15, 60, 180 and 360 minutes post-administration, animals were euthanized and plasma and ocular tissues including sclera, cornea, retina, vitreous humour/lens and optic nerve were collected.
Bioanalysis of CDO was performed depending on the type of matrix. In the case of plasma, proteins were precipitated using methanol. In the case of tissues, samples were grinded in a Mini Bead Beater using zirconium beads and methanol/water (1:1) (v/v) as solvent. After centrifugation, samples were analyzed by UPLC-MS/MS.
Chromatographic separation was carried out using an Acquity CSH Fluoro Phenyl column (1.7 μm, 50×2.1 mm). Mobile phase consisted of a gradient using 0.1% formic acid in water and acetonitrile from 5% to 45% in 4.5 min at a flow rate of 0.6 ml/min.
With regard to the mass spectrometric detection, the electrospray ionization source worked to record negative ions. Multiple Reaction Monitoring (MRM) acquisition mode of the deprotonated molecular ions was performed. The transition monitored for CDO was m/z 189.0→80.1 with a cone voltage of 45 V and collision energy of 25 eV.

[2] = tested on: diabetic rats induced by streptozotocin; experiment: Retinal vascularity (Evans Blue staining) in diabetic retinopathy model induced by streptozotocin; assay type: in vivo, SD male rats; details: diabetic rats (group III), CDO 10 mg/ml topical 10 μl/eye TID 28 days
Procedure: (§1) Diabetes was induced in SD male rats by single intraperitoneal injection of streptozotocin (STZ) at 60 mg/kg body weight in citrate buffer (pH 4.5). Seven days after STZ administration, blood glucose was measured and the level of 250 mg/dl was considered the threshold value to consider diabetes induction. Ophthalmic treatment with CDO at 10 mg/ml (topical instillation of 10 μl/eye) was initiated once hyperglycemia was confirmed and continued for 28 days three times a day (TID). Rats were randomly divided in 3 groups: I. Control (non-diabetic), II. Diabetic rats with no treatment and III. Diabetic rats with CDO at 10 mg/ml.
(§2) At day 29 CDO was instilled a single time at 10 mg/ml in the group III, rats were euthanized and retinas were collected 15 minutes post-administration.
Retinal vascularity was observed by Evans Blue (EB) staining, based on the ability of EB to bind serum albumin immediately after intravenous injection. Thus Evans Blue 3% was injected through the tail vein at 1 ml/kg at 60 minutes before euthanasia at day 29. Eyeballs were fixed in paraformaldehyde 4%. Retinas were immediately after dissected and mounted in slides and observed by fluorescence microscopy.

[3] = tested on: oxidized glutathione (GSSG); experiment: Antioxidant capacity: GSSG in homogenized retinas, streptozotocin diabetic retinopathy model; assay type: in vivo, SD male rats; details: diabetic rats, CDO 10 mg/ml topical 10 μl/eye TID 28 days; P<0.01 group II vs. group III
Procedure: as §1, §2
The antioxidant capacity was evaluated by determining the concentrations of Glutathione disulfide (GSSG) or oxidized glutathione in the homogenized retinas. Tissues were collected at day 29 and homogenized in PBS pH 6-7 containing 1 mM EDTA. After centrifugation at 10000 rpm, an aliquot of the supernatant was diluted in 0.1% formic acid and analyzed by UPLC-MS/MS. […]
With regard to the mass spectrometric detection, the electrospray ionization source worked to record negative ions. […] The transition monitored for GSSG was m/z 611.2→306.2 with a cone voltage of 45 V and collision energy of 25 eV.

[4] = rat, oral 50 mg/Kg = 10 mg, 0.25 h
[5] = rat, oral 50 mg/Kg = 10 mg, 1 h
[6] = rat, topical eye 10 mg/ml (eye drop of 10 μl) = 0.1 mg, 3 h

## O=S(=O)(O)c1cc(O)ccc1O [CDO, Calcium dobesilate monohydrate]
[1]; Sprague Dawley, sclera, rat, topical eye 100 mg/ml (eye drop of 10 μl) = 1 mg, 3 h, read-out: CDO concentrations Sclera
  concentration at 3 h: 220 ng/g
[1]; Sprague Dawley, vitreous humour/lens, rat, topical eye 10 mg/ml (eye drop of 10 μl) = 0.1 mg, 0.25 h, read-out: CDO concentrations Vitreous humour/lens
  concentration at 0.25 h: 1480 ng/g
[1]; Sprague Dawley, vitreous humour/lens, rat, topical eye 10 mg/ml (eye drop of 10 μl) = 0.1 mg, 1 h, read-out: CDO concentrations Vitreous humour/lens
  concentration at 1 h: 1680 ng/g
[1]; Sprague Dawley, vitreous humour/lens, rat, topical eye 10 mg/ml (eye drop of 10 μl) = 0.1 mg, 3 h, read-out: CDO concentrations Vitreous humour/lens
  concentration at 3 h: 190 ng/g
[1]; Sprague-Dawley, optic nerve, rat, topical eye 10 mg/ml (eye drop of 10 μl) = 0.1 mg, 0.25 h, read-out: CDO concentrations Optic nerve
  concentration at 0.25 h: 5300 ng/g
[1]; Sprague-Dawley, optic nerve, rat, topical eye 10 mg/ml (eye drop of 10 μl) = 0.1 mg, 1 h, read-out: CDO concentrations Optic nerve
  concentration at 1 h: 850 ng/g
[1]; Sprague-Dawley, optic nerve, rat, topical eye 10 mg/ml (eye drop of 10 μl) = 0.1 mg, 6 h, read-out: CDO concentrations Optic nerve
  concentration at 6 h: 250 ng/g
[1]; Sprague-Dawley, optic nerve, rat, topical eye 100 mg/ml (eye drop of 10 μl) = 1 mg, 0.25 h, read-out: CDO concentrations Optic nerve
  concentration at 0.25 h: 13700 ng/g
[1]; Sprague-Dawley, optic nerve, rat, topical eye 100 mg/ml (eye drop of 10 μl) = 1 mg, 1 h, read-out: CDO concentrations Optic nerve
  concentration at 1 h: 2910 ng/g
[1]; Sprague-Dawley, optic nerve, rat, topical eye 100 mg/ml (eye drop of 10 μl) = 1 mg, 3 h, read-out: CDO concentrations Optic nerve
  concentration at 3 h: 1920 ng/g
[1]; Sprague-Dawley, optic nerve, rat, topical eye 100 mg/ml (eye drop of 10 μl) = 1 mg, 6 h, read-out: CDO concentrations Optic nerve
  concentration at 6 h: 2650 ng/g
[1]; Sprague-Dawley, plasma, rat, topical eye 10 mg/ml (eye drop of 10 μl) = 0.1 mg, 0.25 h, read-out: CDO concentrations Plasma
  concentration at 0.25 h: 10 ng/g
[1]; Sprague-Dawley, plasma, rat, topical eye 10 mg/ml (eye drop of 10 μl) = 0.1 mg, 1 h, read-out: CDO concentrations Plasma
  concentration at 1 h: 10 ng/g
[1]; Sprague-Dawley, plasma, rat, topical eye 10 mg/ml (eye drop of 10 μl) = 0.1 mg, 3 h, read-out: CDO concentrations Plasma
  concentration at 3 h: 80 ng/g
[1]; Sprague-Dawley, plasma, rat, topical eye 100 mg/ml (eye drop of 10 μl) = 1 mg, 0.25 h, read-out: CDO concentrations Plasma
  concentration at 0.25 h: 220 ng/g
[1]; Sprague-Dawley, plasma, rat, topical eye 100 mg/ml (eye drop of 10 μl) = 1 mg, 1 h, read-out: CDO concentrations Plasma
  concentration at 1 h: 370 ng/g
[1]; Sprague-Dawley, plasma, rat, topical eye 100 mg/ml (eye drop of 10 μl) = 1 mg, 3 h, read-out: CDO concentrations Plasma
  concentration at 3 h: 280 ng/g
[1]; Sprague-Dawley, retina/choroid, rat, topical eye 100 mg/ml (eye drop of 10 μl) = 1 mg, 1 h, read-out: CDO concentrations Retina/Choroid
  concentration at 1 h: 1520 ng/g
[1]; Sprague-Dawley, retina/choroid, rat, topical eye 100 mg/ml (eye drop of 10 μl) = 1 mg, 3 h, read-out: CDO concentrations Retina/Choroid
  concentration at 3 h: 1570 ng/g
[1]; rat, 6 hours after topical ocular administration
  CDO amounts in target tissues (optic nerve and retina choroids) 6 hours after topical ocular administration: could be detected
[1]; [4]
  CDO concentrations Optic nerve: —
  CDO concentrations Retina: —
[1]; [5]
  CDO concentrations Optic nerve: —
  CDO concentrations Retina: —
[1]; rat, oral 50 mg/Kg = 10 mg, 3 h
  CDO concentrations Retina: —
[1]; rat, oral 50 mg/Kg = 10 mg, 6 h
  CDO concentrations Retina: —
[1]; rat, single dose
  amount of CDO orally administered showing equivalent levels in retina to 1 mg CDO instilled onto the eye surface: 40 to 150 mg
[1]; rat, topical eye 10 mg/ml (eye drop of 10 μl) = 0.1 mg, 1 h
  CDO concentrations Retina: —
[1]; [6]
  CDO concentrations Optic nerve: —
  CDO concentrations Retina: —
[1]; rat, topical eye 10 mg/ml (eye drop of 10 μl) = 0.1 mg, 6 h
  CDO concentrations Retina: —
[1]; rats, topical eye administration
  plasmatic levels after topical eye administration: low plasmatic levels
[2]
  Retinal vascularity (fluorescence microscopy, Evans Blue): well preserved retinas, with well-defined vessels with no evidence of vascular damages
[3]
  retinal concentrations of GSSG: return concentrations of GSSG at the same level as the control group
